“And” between values parts separate entries of the source, which are not always exact repeats. Equal values may be shown once.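 Following 48 hours of exposure in 96-well plates, responses at five concentrations were used to interpolate endpoints linearly. GI50 = concentration required for 50% inhibition of growth. TGI marks complete inhibition of growth.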
What was measured:
Test in all cases: NCI tumour cell line growth inhibition, 48 h
[1] = test system: NCI-H23 lung
[2] = test system: BT-549 breast
[3] = test system: KM12 colon
[4] = test system: A498 renal
[5] = test system: OVCAR-5 ovarian
[6] = test system: OVCAR-4 ovarian
[7] = test system: HCT-116 colon
[8] = test system: PC-3 prostate
[9] = test system: SF-539 CNS
[10] = test system: 786-0 renal
[11] = test system: T-47D breast
[12] = test system: TK-10 renal
[13] = test system: LOX IMVI melanoma
[14] = test system: HCT-15 colon
[15] = test system: IGROV1 ovarian
[16] = test system: DU-145 prostate
[17] = test system: MDA-MB-231 breast
[18] = test system: NCI-H522 lung
[19] = test system: SK-MEL-5 melanoma
[20] = test system: COLO 205 colon
[21] = test system: SF-268 CNS
[22] = test system: MOLT-4 leukemia
[23] = test system: OVCAR-3 ovarian
[24] = test system: SNB-19 CNS
[25] = test system: U251 CNS
[26] = test system: CAKI-1 renal
[27] = test system: SF-295 CNS
[28] = test system: RXF 393 renal
[29] = test system: NCI-H226 lung
[30] = test system: UACC-257 melanoma
[31] = test system: SK-MEL-2 melanoma
[32] = test system: SR leukemia
[33] = test system: K-562 leukemia
[34] = test system: SNB-75 CNS
[35] = test system: UACC-62 melanoma
[36] = test system: OVCAR-8 ovarian
[37] = test system: UO-31 renal
[38] = test system: M14 melanoma
[39] = test system: HS 578T breast
[40] = test system: MALME-3M melanoma
[41] = test system: SN12C renal
[42] = test system: SW-620 colon
[43] = test system: HT29 colon
[44] = test system: HOP-92 NSCLC
[45] = test system: SK-MEL-28 melanoma
[46] = test system: CCRF-CEM leukemia
[47] = test system: NCI/ADR-RES ovarian
[48] = test system: RPMI-8226 leukemia
[49] = test system: HOP-62 NSCLC
[50] = test system: MDA-MB-435
[51] = test system: ACHN renal
[52] = test system: MCF7 breast
[53] = test system: SK-OV-3 ovarian
[54] = test system: NCI-H460 lung
[55] = test system: EKVX NSCLC
[56] = test system: A549 NSCLC
[57] = test system: HCC-2998 colon
[58] = test system: HL-60(TB) leukemia

CC(N)=O.[Cl][Pt][Cl].[NH-]c1ccn(C2OC(CO)C(O)C2O)c(=O)n1 (stereo unspecified)
TGI [1]: > 100 µM
TGI [2]: > 100 µM
TGI [3]: > 100 µM
TGI [4]: > 100 µM
TGI [5]: > 100 µM
TGI [6]: > 100 µM
TGI [7]: > 100 µM
TGI [8]: > 100 µM
TGI [9]: > 100 µM
TGI [10]: > 100 µM
TGI [11]: > 100 µM
TGI [12]: > 100 µM
TGI [13]: > 100 µM
TGI [14]: > 100 µM
TGI [15]: > 100 µM
TGI [16]: > 100 µM
TGI [17]: > 100 µM
TGI [18]: > 100 µM
TGI [19]: > 100 µM
TGI [20]: > 100 µM
TGI [21]: > 100 µM
TGI [22]: > 100 µM
TGI [23]: > 100 µM
TGI [24]: > 100 µM
TGI [25]: > 100 µM
TGI [26]: > 100 µM
TGI [27]: > 100 µM
TGI [28]: > 100 µM
TGI [29]: > 100 µM
TGI [30]: > 100 µM
TGI [31]: > 100 µM
TGI [32]: > 100 µM
TGI [33]: > 100 µM
TGI [34]: > 100 µM
TGI [35]: > 100 µM
TGI [36]: > 100 µM
TGI [37]: > 100 µM
TGI [38]: > 100 µM
TGI [39]: > 100 µM
TGI [40]: > 100 µM
TGI [41]: > 100 µM
TGI [42]: > 100 µM
TGI [43]: > 100 µM
TGI [44]: > 100 µM
TGI [45]: > 100 µM
TGI [46]: > 100 µM
TGI [47]: > 100 µM
TGI [48]: > 100 µM
TGI [49]: > 100 µM
TGI [50]: > 100 µM
TGI [51]: > 100 µM
TGI [52]: > 100 µM
TGI [53]: > 100 µM
TGI [54]: > 100 µM
TGI [55]: > 100 µM
TGI [56]: > 100 µM

Oc1c(I)cc(Cl)c2cccnc12
GI50 [1]: 3.74 µM and 8.04 µM
TGI [1]: 31.4 µM and > 100 µM
GI50 [57]: 5.55 µM and 12.7 µM
TGI [57]: 36 µM and 59.4 µM
GI50 [2]: 3.27 µM and 23.1 µM
TGI [2]: 8.99 µM and 65.3 µM
GI50 [3]: 5.98 µM and 18.2 µM
TGI [3]: 49.9 µM and 47.7 µM
GI50 [5]: 6.43 µM and 13.2 µM
TGI [5]: 73.5 µM and 49.6 µM
GI50 [6]: 2.82 µM and 4.39 µM
TGI [6]: 13.8 µM and > 100 µM
GI50 [7]: 3.31 µM and 2.67 µM
TGI [7]: 11.1 µM and 9.05 µM
GI50 [8]: 4.37 µM and 4.87 µM
TGI [8]: 57.5 µM and 81.6 µM
GI50 [9]: 3.31 µM and 24.3 µM
TGI [9]: 13.7 µM and 52.6 µM
GI50 [10]: 3.28 µM and 3.86 µM
TGI [10]: 12.6 µM and 17.6 µM
GI50 [11]: 4.16 µM and 8.7 µM
TGI [11]: 28.7 µM and > 100 µM
GI50 [12]: 31.3 µM and 24 µM
TGI [12]: > 100 µM and 73.8 µM
GI50 [13]: 2.66 µM and 4.03 µM
TGI [13]: 39.4 µM and 24.2 µM
GI50 [14]: 5.48 µM and 3.82 µM
TGI [14]: > 100 µM and 38.5 µM
GI50 [15]: 3.91 µM and 13 µM
TGI [15]: 24.2 µM and 36.5 µM
GI50 [16]: 5.9 µM and 21.2 µM
TGI [16]: > 100 µM and 50.6 µM
GI50 [17]: 3.54 µM and 2.7 µM
TGI [17]: 35.2 µM and 12.8 µM
GI50 [18]: 3.93 µM and 14.5 µM
TGI [18]: 30.2 µM and 36.4 µM
GI50 [19]: 1.83 µM and 4.12 µM
TGI [19]: 4.23 µM and 16.1 µM
GI50 [58]: 2.77 µM
TGI [58]: 6.22 µM
GI50 [20]: 5.21 µM and 5.72 µM
TGI [20]: 21.8 µM and 75.4 µM
GI50 [21]: 3.86 µM and 6.22 µM
TGI [21]: > 100 µM
GI50 [22]: 3.37 µM and 3.12 µM
TGI [22]: 9.93 µM and 21.4 µM
GI50 [23]: 5.62 µM and 21.3 µM
TGI [23]: 65.1 µM and 61.5 µM
GI50 [24]: 3.71 µM and 9.32 µM
TGI [24]: > 100 µM
GI50 [25]: 3.9 µM and 3.65 µM
TGI [25]: > 100 µM and 32.8 µM
GI50 [26]: 2.38 µM and 21.4 µM
GI50 [27]: 2.62 µM and 22.2 µM
GI50 [28]: 2.27 µM and 16.8 µM
GI50 [29]: 3.02 µM and 2.66 µM
TGI [29]: 20 µM and 8.8 µM
GI50 [30]: 3.61 µM and 24.5 µM
TGI [30]: 83.5 µM and 71.5 µM
GI50 [31]: 11 µM and 14.7 µM
TGI [31]: > 100 µM and 41.3 µM
GI50 [32]: 3.15 µM
TGI [32]: 8.61 µM
GI50 [33]: 3.91 µM
TGI [33]: > 100 µM
GI50 [34]: 4.42 µM
TGI [34]: > 100 µM
GI50 [35]: 1.81 µM and 2.06 µM
TGI [35]: 4.56 µM and 5.09 µM
GI50 [36]: 3.96 µM and 27.2 µM
TGI [36]: > 100 µM and 99.3 µM
GI50 [37]: 2.35 µM and 22.1 µM
TGI [37]: 11.5 µM and 52.9 µM
GI50 [38]: 2.08 µM
TGI [38]: 4.37 µM
GI50 [39]: 7.78 µM and 8.12 µM
TGI [39]: > 100 µM and 57.7 µM
GI50 [40]: 3.97 µM and 16.5 µM
TGI [40]: 21.6 µM and 46.5 µM
GI50 [41]: 3.27 µM and 4.82 µM
TGI [41]: > 100 µM and 26.3 µM
GI50 [42]: 4.05 µM and 3.73 µM
TGI [42]: > 100 µM and 32.5 µM
GI50 [43]: 11.3 µM and 6.1 µM
TGI [43]: > 100 µM
TGI [44]: 17.9 µM and 50.3 µM
GI50 [45]: 3.75 µM and 6.69 µM
TGI [45]: > 100 µM
GI50 [46]: 2.81 µM and 1.89 µM
TGI [46]: 9.89 µM and 4.71 µM
GI50 [47]: 3.21 µM and 4.12 µM
TGI [47]: 36 µM and 45.7 µM
GI50 [48]: 3.43 µM and 2.86 µM
TGI [48]: 27.2 µM and 10.8 µM
GI50 [49]: 4.02 µM and 4.07 µM
TGI [49]: 28.5 µM and 20.1 µM
GI50 [50]: 4.2 µM and 32.8 µM
TGI [50]: > 100 µM
GI50 [51]: 3.52 µM and 3.5 µM
TGI [51]: 21.7 µM and 23.7 µM
GI50 [52]: 3.24 µM and 6.36 µM
TGI [52]: 41.3 µM and > 100 µM
GI50 [53]: 6.24 µM and 9.06 µM
TGI [53]: 22 µM and > 100 µM
GI50 [54]: 3 µM and 5.84 µM
TGI [54]: > 100 µM and 85.1 µM
GI50 [55]: 2.89 µM and 25.4 µM
TGI [55]: 18 µM and 57.9 µM
GI50 [56]: 3.96 µM and 8.89 µM
TGI [56]: > 100 µM
